Test results from publication PMC9016807, “Metabolic, Pharmacokinetic, and Activity Profile of the Liver Stage Antimalarial (RC-12)” (ACS Omega, 2022).

Experiments:
[1] = Metabolism in human liver microsomes; format: in vitro ADME; settings: 1 μM substrate, NADPH
Procedure: (§1) Following the protocols described by Charman et al.,[28]1 was incubated at 37 °C with human, rat, and rhesus monkey liver microsomes. For the determination of intrinsic clearance, the substrate concentration was 1 μM and the protein concentration was 0.4 mg/mL; for qualitative metabolite identification studies, the substrate and protein concentrations were 10 μM and 1 mg/mL, respectively. The reaction was initiated by the addition of an NADPH-regenerating buffer system, and the samples were incubated for up to 60 (for Clint determination) or 180 min (for additional metabolite identification). Samples without the test compound and without NADPH were also incubated and used as controls. The reaction was quenched by protein precipitation with the addition of an equal volume of ice-cold acetonitrile solution (containing diazepam as an internal standard), followed by vortexing and centrifugation for 3 min at 10000 rpm. The supernatant was removed and analyzed by LC/MS. LC/MS analysis was conducted using a Waters Micromass Xevo G2 QTOF MS coupled to a Waters Acquity UPLC. For metabolite identification, a Supelco Ascentis Express Amide column (50 × 2.1 mm, 2.7 μm) was used with an acetonitrile–water gradient (containing 0.05% formic acid), a flow rate of 0.4 mL/min, a gradient cycle time of 6 min, and an injection volume of 5 μL. MS analysis was conducted using positive mode electrospray ionization under MSE acquisition mode, which allows simultaneous acquisition of MS spectra at low and high collision energies. The identity of putative metabolites was confirmed by the accurate mass and a comparison of the retention times and MS/MS fragmentation patterns with authentic metabolites where available. For metabolite quantitation, the method described below for the analysis of plasma samples was used.

[2] = system: P. vivax liver-stage parasites; test: P. vivax liver-stage in vitro assay, radical cure mode; format: cell-based, Plasmodium vivax; settings: 20 μM, two independent runs, threshold for activity 75% inhibition
Procedure: (§2) Compound 1 and its metabolites were tested in both prophylactic and radical cure modes for activity against P. vivax liver-stage parasites.[16],[17] In the prophylactic assay, compounds are added the day after sporozoite invasion into hepatocytes in order to characterize the compound activity against established liver forms with a parasitophorous vacuole membrane (as opposed to activity on preinvasion sporozoites) and prior to complete maturation of hypnozoites into drug-insensitive dormant forms, which appear at about 5 days postinvasion.[18] In the radical cure assay, compounds are added at day 5 postinfection to characterize activity against late-stage schizonts and mature PI4K inhibitor-insensitive hypnozoites.[19] In these experiments, the threshold for activity is 75% inhibition. […] Similarly, as previously described,[20] 10 μM concentrations of 1 and its metabolites were also tested for activity against P. cynomolgi schizont (large forms) and hypnozoite (small forms) liver-stage parasites cultured in rhesus monkey hepatocytes. In these experiments, the threshold for activity is 50% inhibition.
(§3) Compounds were prepared as 20 mM stock solutions in DMSO and tested in an eight-point semilog (1/3) dilution series from 20 μM in 384-well assay plates in both prophylactic and radical cure mode against P. vivax liver-stage parasites as previously described.[16] Following ethical approval from the Institutional Ethics Committee of the Thai Ministry of Public Health, the Ethical Review Committee of Faculty of Tropical Medicine, Mahidol University (TMEC 11-008 and 14-016), the Oxford Tropical Medicine Ethical Committee, Oxford University, England (OxTREC 17-11 and 40–14), and the Cambodian National Ethics Committee for Health Research (101NECHR), isolates of P. vivax infected blood were collected from patent volunteers in Tak province, Thailandm and Mondulkiri province, Cambodia. Samples were collected by venipuncture into heparin tubes prior to replacement of patient serum with nonimmune AB human serum and feeding to laboratory-reared Anopheles dirus cracens or An. dirus A mosquitoes via water-jacket artificial membrane feeders or the Hemotek insect feeding system (Hemotek, Blackburn, UK) set to maintain the bloodmeal temperature at 37 °C. […] Cryopreserved human hepatocytes (BioIVT, Baltimore, Maryland, USA) were thawed into InVitroGro CP Medium (BioIVT), quantified for viability by trypan blue dye exclusion, diluted to 800–1000 live cells per microliter, and 18000 live cells were plated into each well of a collagen-coated 384-well plate (Greiner, Monroe, NC, USA) by a 16-channel pipet (Finnpipette, Thermo Fisher Scientific, Waltham, MA). […]

[3] = system: P. vivax liver-stage parasites; test: P. vivax liver-stage in vitro assay, prophylactic mode; format: cell-based, Plasmodium vivax; settings: 20 μM, two independent runs, threshold for activity 75% inhibition
Procedure: as §2, §3

[4] = Metabolism in rhesus monkey liver microsomes; format: in vitro ADME; settings: rhesus monkey, liver microsomes; 1 μM substrate, 0.4 mg/mL microsomal protein, NADPH, 37 °C, 60 min; average of three replicates; read-out: CLint
Procedure: as §1

P. vivax = system: P. vivax; set-up: method as in doi:10.1016/0035-9203(74)90194-1; settings: 7-day course at 10 mg/(kg day); cited from earlier work

In the case of CCN(CC)CCN(CCN(CC)CC)c1cc(OC)c(OC)cc1Br [Compound 1, 4-(2-bromo-4,5-dimethoxyphenyl)-1,1,7,7-tetraethyldiethylenetriamine], the “average substrate depletion over a 60 min incubation” value ([1]; 0.4 mg/mL protein, relative to initial substrate concentration) is reported as <10%, the microsomal CLint at 1 μM ([1]; human, liver microsomes, 0.4 mg/mL microsomal protein, 37 °C, 60 min, average of three replicates, read-out: CLint) is reported as < 3 µL/min/mg and the “activity against schizonts or hypnozoites” value [2] is reported as “no activity”. For the same molecule, the “activity against schizonts or hypnozoites” value [3] was “no activity”, the microsomal CLint at 1 μM [4] was 23 ± 4.7 µL/min/mg and the “prevention of infections / inhibition of relapses of P. vivax” value (P. vivax) was “did not prevent infections or inhibit relapses”. The tolerability (P. vivax) was “well-tolerated”.
